# Laboratory results as given in patent US12661410B2, “Compounds for targeted degradation of RET” (C4 Therapeutics, Inc., priority 2020, dated 2026).
# Positions count from the first letter of the chain named. Read-outs that look alike come from different tables or passages of the source.
# What was measured:
# RET(KD: 658-1114 G810R) = target: T1, RET(KD: 658-1114 G810R) (Homo sapiens, UniProt P07949, G810R); assay: HiBiT-Degradation, RET G810R degradation assay (Nano-Glo HiBiT Lytic), 293T.165 cells; assay type: cell-based; details: for Emax / DC50: 6.0 hours; for Emax: % remaining protein, read-out: 293T.165 RET(KD: 658-1114 G810R) 6.0 hours (Emax); for DC50: read-out: 293T.165 RET(KD: 658-1114 G810R) 6.0 hours (DC50)
# T1 construct: 658-1114; expressed in transfected cells; host or cells: 293T.165 (293T cells, generated in-house)
# T1 sequence (P07949 658-1114 G810R): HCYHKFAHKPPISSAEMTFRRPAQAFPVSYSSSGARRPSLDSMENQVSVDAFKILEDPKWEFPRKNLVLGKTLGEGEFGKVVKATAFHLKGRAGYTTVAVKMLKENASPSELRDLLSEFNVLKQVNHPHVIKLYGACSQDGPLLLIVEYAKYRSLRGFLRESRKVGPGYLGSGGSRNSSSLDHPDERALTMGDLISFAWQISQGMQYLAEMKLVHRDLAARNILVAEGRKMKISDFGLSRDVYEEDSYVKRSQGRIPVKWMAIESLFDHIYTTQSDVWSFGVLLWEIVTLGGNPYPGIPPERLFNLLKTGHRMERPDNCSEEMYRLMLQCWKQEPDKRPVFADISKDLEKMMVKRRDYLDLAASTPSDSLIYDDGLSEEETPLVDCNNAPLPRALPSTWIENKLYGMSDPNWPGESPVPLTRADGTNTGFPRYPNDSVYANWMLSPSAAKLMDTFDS
# How it was run: (§1)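 Cells were plated and dosed with an 11-point half-log series (highest 10 μM) in duplicate. After 6 hours they were lysed with HiBiT lytic detection reagent and luminescence measured. DC50 and percent remaining protein (Emax) came from the dose-response curves.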
# RET (658-1114) = target: T2, RET (658-1114) (Homo sapiens, UniProt P07949); assay: HiBiT-Degradation, RET wild-type degradation assay (Nano-Glo HiBiT Lytic), 293T.144 cells; assay type: cell-based; details: for Emax / DC50: 6.0 hours; for Emax: read-out: 293T.144 RET (658-1114) 6.0 hours (Emax); for DC50: read-out: 293T.144 RET (658-1114) 6.0 hours (DC50)
# T2 construct: 658-1114; expressed in transfected cells; host or cells: 293T.144 (293T cells, generated in-house)
# T2 sequence (P07949 658-1114): T1 sequence (P07949 658-1114 G810R) with R153G
# How it was run: as §1
# [1] = half-maximal degradation concentration
SMILES,293T.165 RET(KD: 658-1114 G810R) 6.0 hours (IP) [nM] (RET(KD: 658-1114 G810R)),Emax (RET(KD: 658-1114 G810R)) [%],DC50 (RET(KD: 658-1114 G810R); [1]) [nM],293T.144 RET (658-1114) 6.0 hours (IP) [nM] (RET (658-1114)),Emax (RET (658-1114); % remaining protein) [%],DC50 (RET (658-1114); [1]) [nM],293T.165 RET(KD: 658-1114 G810R) 6.0 hours (Emax) (RET(KD: 658-1114 G810R); HiBiT-Degradation),293T.165 RET(KD: 658-1114 G810R) 6.0 hours (IP) [nM] (RET(KD: 658-1114 G810R); HiBiT-Degradation),DC50 (RET(KD: 658-1114 G810R); HiBiT-Degradation) [nM],293T.144 RET (658-1114) 6.0 hours (IP) [nM] (RET (658-1114); HiBiT-Degradation),DC50 (RET (658-1114); HiBiT-Degradation) [nM],Emax (RET (658-1114); HiBiT-Degradation) [%]
"CCC1(C(=O)NC2CCC2)CCN(c2ccc(-c3nc(-c4cnn([C@H]5CC[C@H](N6CCN(c7cc(OC)c(N[C@@H]8CCC(=O)NC8=O)cc7F)CC6)CC5)c4)cn4ncc(C#N)c34)cn2)CC1 (single isomer, unassigned) [Compound 135]",++++ (<50 nM = ++++),< 30,< 50,++++ (<50 nM = ++++),< 30,< 50,,,,,,
"CCC1(C(=O)Nc2ccccc2)CCN(c2ccc(-c3nc(-c4cnn(C5CCN(C(=O)CC6(O)CCN(c7ccc(NC8CCC(=O)NC8=O)cc7Cl)CC6)CC5)c4)cn4ncc(C#N)c34)cn2)CC1 (centres unmarked) [Compound 98, 1-[5-[6-[1-[1-[2-[1-[2-chloro-4-[(2,6-dioxo-3-piperidyl)amino]phenyl]-4-hydroxy-4-piperidyl]acetyl]-4-piperidyl]pyrazol-4-yl]-3-cyano-pyrazolo[1,5-a]pyrazin-4-yl]-2-pyridyl]-4-ethyl-N-phenyl-piperidine-4-carboxamide]",++++ (<50 nM = ++++),< 30,< 100,++++ (<50 nM = ++++),< 30,< 50,,,,,,
"CC(=O)N1CCN(c2ccc(-c3cc(-c4cnn(C5CCN(C(=O)CN6CCC(c7ccc(NC8CCC(=O)NC8=O)cc7)CC6)CC5)c4)cn4ncc(C#N)c34)cn2)CC1 (centres unmarked) [Compound 42, 4-[6-(4-acetylpiperazin-1-yl)-3-pyridyl]-6-[1-[1-[2-[4-[4-[(2,6-dioxo-3-piperidyl)amino]phenyl]-1-piperidyl]acetyl]-4-piperidyl]pyrazol-4-yl]pyrazolo[1,5-a]pyridine-3-carbonitrile]",,< 50,< 100,,,,+++ (<50% = +++),++++ (< 50 nM = ++++),< 100,++++ (< 50 nM = ++++),< 50,< 30

# Results, then the molecule that gave them:
293T.165 RET(KD: 658-1114 G810R) 6.0 hours (IP) [nM] (RET(KD: 658-1114 G810R)),Emax (RET(KD: 658-1114 G810R)) [%],DC50 (RET(KD: 658-1114 G810R); [1]) [nM],293T.144 RET (658-1114) 6.0 hours (IP) [nM] (RET (658-1114)),Emax (RET (658-1114); % remaining protein) [%],DC50 (RET (658-1114); [1]) [nM],293T.165 RET(KD: 658-1114 G810R) 6.0 hours (Emax) (RET(KD: 658-1114 G810R); HiBiT-Degradation),293T.165 RET(KD: 658-1114 G810R) 6.0 hours (IP) [nM] (RET(KD: 658-1114 G810R); HiBiT-Degradation),DC50 (RET(KD: 658-1114 G810R); HiBiT-Degradation) [nM],293T.144 RET (658-1114) 6.0 hours (IP) [nM] (RET (658-1114); HiBiT-Degradation),DC50 (RET (658-1114); HiBiT-Degradation) [nM],Emax (RET (658-1114); HiBiT-Degradation) [%],SMILES
++++ (<50 nM = ++++),< 30,< 100,++++ (<50 nM = ++++),< 30,< 50,,,,,,,"CCC1(C(=O)NC2CCC2)CCN(c2ccc(-c3nc(-c4cnn([C@H]5CC[C@H](CN6CCN(c7ccc(N[C@H]8CCC(=O)NC8=O)cc7F)CC6)CC5)c4)cn4ncc(C#N)c34)cn2)CC1 [Compound 189, 1-[5-[3-cyano-6-[1-[4-[[4-[4-[[(3S)-2,6-dioxo-3-piperidyl]amino]-2-fluoro-phenyl]piperazin-1-yl]methyl]cyclohexyl]pyrazol-4-yl]pyrazolo[1,5-a]pyrazin-4-yl]-2-pyridyl]-N-cyclobutyl-4-ethyl-piperidine-4-carboxamide]"
++++ (<50 nM = ++++),< 30,< 100,++++ (<50 nM = ++++),< 30,< 50,,,,,,,"COc1cc(N2CCN([C@H]3CC[C@H](n4cc(-c5cn6ncc(C#N)c6c(-c6ccc(N7C[C@@H]8C[C@@](C)(NC(=O)c9ncccc9Cl)C[C@@H]8C7)nc6)n5)cn4)CC3)CC2)c(F)cc1NC1CCC(=O)NC1=O (stereo partly drawn) [Compound 209, N-[(3aR,6aS)-2-[5-[3-cyano-6-[1-[4-[4-[4-[(2,6-dioxo-3-piperidyl)amino]-2-fluoro-5-methoxy-phenyl]piperazin-1-yl]cyclohexyl]pyrazol-4-yl]pyrazolo[1,5-a]pyrazin-4-yl]-2-pyridyl]-5-methyl-1,3,3a, 4,6,6a-hexahydrocyclopenta[c]pyrrol-5-yl]-3-chloro-pyridine-2-carboxamide]"
